# Experimental data reported in patent publication US20100298141A1, “SUBSTITUTED PYRIDINE N-OXIDE HERBICIDES” (E. I. DU PONT DE NEMOURS AND COMPANY, priority 2007, published 2010).
# Experiments:
# crabgrass = assay: Test A pre-/postemergence greenhouse test; assay type: in vivo, Digitaria sanguinalis; conditions: for Crabgrass, Large plant response rating: 0 to 100 scale
# Procedure, shortened: (§1)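 Visual injury ratings, made relative to untreated controls roughly ten days after treatment, cover both preemergence and postemergence application. Compounds in a surfactant-containing non-phytotoxic solvent were sprayed onto the soil surface after sowing and, simultaneously, onto young plants at the one- to two-leaf stage.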
# wheat = assay: Test A pre-/postemergence greenhouse test; assay type: in vivo, Triticum aestivum; conditions: for Wheat plant response rating: 0 to 100 scale
# Procedure, shortened: as §1
# giant foxtail [1] = assay: Test A pre-/postemergence greenhouse test; assay type: in vivo, Setaria faberi; conditions: for Foxtail, Giant plant response rating: 0 to 100 scale
# Procedure, shortened: as §1
# yellow nutsedge = assay: Test C pre-/postemergence test; assay type: in vivo, Cyperus esculentus; conditions: for Plant response rating, Nutsedge, Yellow: scale 0 to 100, 0 no effect, 100 complete control
# Excerpt: (§2) Seeds of plant species selected from blackgrass (Alopecurus myosuroides), downy brome (Bromus tectorum), green foxtail (Setaria viridis), Italian ryegrass (Lolium multiflorum), wheat (Triticum aestivum), wild oat (Avena fatua), catchweed bedstraw (Galium aparine), Russian thistle (Salsola kali), […] (Cynodon dactylon), Surinam grass (Brachiaria decumbens), cocklebur (Xanthium strumarium), corn (Zea mays), crabgrass (Digitaria sanguinalis), woolly cupgrass (Eriochloa villosa), giant foxtail (Setaria faberii), Goosegrass (Eleusin indica), johnsongrass (Sorghum halepense), kochia (Kochia scoparia), lambsquarters (Chenopodium album), morningglory (Ipomoea coccinea), eastern black nightshade (Solanum ptycanthum), yellow nutsedge (Cyperus esculentus), pigweed (Amaranthus retroflexus), common ragweed (Ambrosia elation), soybean (Glycine max), common (oilseed) sunflower (Helianthus annuus), and velvetleaf (Abutilon theophrasti) were planted and treated preemergence with test chemicals formulated in a non-phytotoxic solvent mixture which included a surfactant. At the same time, plants selected from these crop and weed species and also winter barley (Hordeum vulgare), canarygrass (Phalaris minor), and chickweed (Stellaria media) were treated with postemergence applications of some of the test chemicals formulated in the same manner. Plants ranged in height from 2 to 18 cm (1- to 4-leaf stage) for postemergence treatments. […] At time of treatment, test pots were flooded to 3 cm above the soil surface, treated by application of test compounds directly to the paddy water, and then maintained at that water depth for the duration of the test. […] A dash (-) response means no test result.
# lambsquarters = assay: Test C pre-/postemergence test; assay type: in vivo, Chenopodium album; conditions: for Plant response rating, Lambsquarters: scale 0 to 100, 0 no effect, 100 complete control
# Excerpt: as §2
# cocklebur = assay: Test C pre-/postemergence test; assay type: in vivo, Xanthium strumarium; conditions: for Plant response rating, Cocklebur: scale 0 to 100, 0 no effect, 100 complete control
# Excerpt: as §2
# common ragweed = assay: Test C pre-/postemergence test; assay type: in vivo, Ambrosia elation; conditions: for Plant response rating, Ragweed: scale 0 to 100, 0 no effect, 100 complete control
# Excerpt: as §2
# giant foxtail [2] = assay: Test C pre-/postemergence test; assay type: in vivo, Setaria faberii; conditions: for Plant response rating, Foxtail, Giant: scale 0 to 100, 0 no effect, 100 complete control
# Excerpt: as §2
# soybean = assay: Test C pre-/postemergence test; assay type: in vivo, Glycine max; conditions: for Plant response rating, Soybean: scale 0 to 100, 0 no effect, 100 complete control
# Excerpt: as §2
# morningglory [3] = assay: Test C pre-/postemergence test; assay type: in vivo, Ipomoea coccinea; conditions: for Plant response rating, Morningglory: Postemergence, scale 0 to 100, 0 no effect, 100 complete control
# Excerpt: as §2
# corn = assay: Test C pre-/postemergence test; assay type: in vivo, Zea mays; conditions: for Plant response rating, Corn: scale 0 to 100, 0 no effect, 100 complete control
# Excerpt: as §2
# morningglory [4] = assay: Test A pre-/postemergence greenhouse test; assay type: in vivo, Ipomoea spp.; conditions: for Morningglory plant response rating: 0 to 100 scale
# Procedure, shortened: as §1
# Goosegrass = assay: Test C pre-/postemergence test; assay type: in vivo, Eleusin indica; conditions: for Plant response rating, Goosegrass: scale 0 to 100, 0 no effect, 100 complete control
# Excerpt: as §2
# downy brome = assay: Test C pre-/postemergence test; assay type: in vivo, Bromus tectorum; conditions: for Plant response rating, Bromegrass, Downy: scale 0 to 100, 0 no effect, 100 complete control
# Excerpt: as §2
# johnsongrass = assay: Test C pre-/postemergence test; assay type: in vivo, Sorghum halepense; conditions: for Plant response rating, Johnsongrass: scale 0 to 100, 0 no effect, 100 complete control
# Excerpt: as §2
# woolly cupgrass = assay: Test C pre-/postemergence test; assay type: in vivo, Eriochloa villosa; conditions: for Plant response rating, Cupgrass, Woolly: scale 0 to 100, 0 no effect, 100 complete control
# Excerpt: as §2
# [5] = Postemergence, 125 g ai/ha, 0 is no effect, 100 is complete control
# [6] = Postemergence, 500 g ai/ha, 0 is no effect, 100 is complete control
# [7] = Preemergence, 125 g ai/ha, 0 no effect, 100 complete control
# [8] = Preemergence, 500 g ai/ha, 0 to 100 scale where 0 is no effect and 100 is complete control
# [9] = 31 g ai/ha, Preemergence, scale 0 to 100
# [10] = 62 g ai/ha, preemergence, scale 0 (no effect) to 100 (complete control)
# [11] = preemergence, 125 g ai/ha, scale 0 (no effect) to 100 (complete control)
smiles,measurement,setting,value
Cc1cc[n+]([O-])c(S(=O)(=O)Cc2c(C(F)(F)F)nn(C)c2OC(F)F)c1 [Compound 2],"Crabgrass, Large plant response rating",crabgrass; [5],70
same,"Crabgrass, Large plant response rating",crabgrass; [6],90
same,"Crabgrass, Large plant response rating",crabgrass; [7],90
same,"Plant response rating, Crabgrass, Large",crabgrass; [8],100
same,Wheat plant response rating,wheat; [5],60
same,Wheat plant response rating,wheat; [6],70
same,Wheat plant response rating,wheat; [7],40
same,"Plant response rating, Wheat",wheat; [8],70
same,"Foxtail, Giant plant response rating",giant foxtail [1]; [5],80
same,"Foxtail, Giant plant response rating",giant foxtail [1]; [6],90
same,"Foxtail, Giant plant response rating",giant foxtail [1]; [7],100
same,"Plant response rating, Foxtail, Giant",giant foxtail [1]; [8],100
same,"Nutsedge, Yellow plant response rating",yellow nutsedge; [9],0
same,"Nutsedge, Yellow plant response rating",yellow nutsedge; [10],95
same,"Plant response rating (0 to 100), Nutsedge, Yellow","yellow nutsedge; Postemergence, 31 g ai/ha",0
same,"Plant response rating, Nutsedge, Yellow","yellow nutsedge; Postemergence, 62 g ai/ha",0
same,"Plant response rating, Nutsedge, Yellow","yellow nutsedge; Postemergence, 125 g ai/ha",0
same,"Plant response rating, Nutsedge, Yellow","yellow nutsedge; Postemergence, 250 g ai/ha",0
same,"Plant response rating (0 to 100), Nutsedge, Yellow","yellow nutsedge; Preemergence, 250 g ai/ha",100
same,"Nutsedge, Yellow plant response rating",yellow nutsedge; [11],95
same,Lambsquarters plant response rating,lambsquarters; [9],0
same,Lambsquarters plant response rating,lambsquarters; [10],70
same,"Plant response rating (0 to 100), Lambsquarters","lambsquarters; Postemergence, 31 g ai/ha",0
same,"Plant response rating, Lambsquarters","lambsquarters; Postemergence, 62 g ai/ha",0
same,"Plant response rating, Lambsquarters","lambsquarters; Postemergence, 125 g ai/ha",0
same,"Plant response rating, Lambsquarters","lambsquarters; Postemergence, 250 g ai/ha",0
same,"Plant response rating (0 to 100), Lambsquarters","lambsquarters; Preemergence, 250 g ai/ha",100
same,Lambsquarters plant response rating,lambsquarters; [11],100
same,Cocklebur plant response rating,cocklebur; [9],0
same,Cocklebur plant response rating,cocklebur; [10],0
same,"Plant response rating (0 to 100), Cocklebur","cocklebur; Postemergence, 31 g ai/ha",0
same,"Plant response rating, Cocklebur","cocklebur; Postemergence, 62 g ai/ha",0
same,"Plant response rating, Cocklebur","cocklebur; Postemergence, 125 g ai/ha",0
same,"Plant response rating, Cocklebur","cocklebur; Postemergence, 250 g ai/ha",10
same,"Plant response rating (0 to 100), Cocklebur","cocklebur; Preemergence, 250 g ai/ha",100
same,Cocklebur plant response rating,cocklebur; [11],70
same,Ragweed plant response rating,common ragweed; [9],20
same,Ragweed plant response rating,common ragweed; [10],98
same,"Plant response rating (0 to 100), Ragweed","common ragweed; Postemergence, 31 g ai/ha",0
same,"Plant response rating (0 to 100), Ragweed","common ragweed; Postemergence, 62 g ai/ha",0
same,"Plant response rating, Ragweed","common ragweed; Postemergence, 125 g ai/ha",5
same,"Plant response rating, Ragweed","common ragweed; Postemergence, 250 g ai/ha",10
same,"Plant response rating (0 to 100), Ragweed","common ragweed; Preemergence, 250 g ai/ha",100
same,Ragweed plant response rating,common ragweed; [11],100
same,"Foxtail, Giant plant response rating",giant foxtail [2]; [9],65
same,"Foxtail, Giant plant response rating",giant foxtail [2]; [10],90
same,"Plant response rating (0 to 100), Foxtail, Giant","giant foxtail [2]; Postemergence, 31 g ai/ha",0
same,"Plant response rating, Foxtail, Giant","giant foxtail [2]; Postemergence, 62 g ai/ha",0
same,"Plant response rating, Foxtail, Giant","giant foxtail [2]; Postemergence, 125 g ai/ha",0
same,"Plant response rating, Foxtail, Giant","giant foxtail [2]; Postemergence, 250 g ai/ha",50
same,"Plant response rating (0 to 100), Foxtail, Giant","giant foxtail [2]; Preemergence, 250 g ai/ha",100
same,"Foxtail, Giant plant response rating",giant foxtail [2]; [11],100
same,"Plant response rating (0 to 100), Soybean","soybean; Postemergence, 31 g ai/ha",40
same,"Plant response rating (0 to 100), Soybean","soybean; Postemergence, 62 g ai/ha",50
same,"Plant response rating, Soybean","soybean; Postemergence, 125 g ai/ha",50
same,"Plant response rating, Soybean","soybean; Postemergence, 250 g ai/ha",50
same,"Plant response rating (0 to 100), Soybean","soybean; Preemergence, 250 g ai/ha",70
same,Soybean plant response rating,soybean; [11],50
same,Morningglory plant response rating,morningglory [3]; [9],85
same,Morningglory plant response rating,morningglory [3]; [10],100
same,"Plant response rating, Morningglory",morningglory [3]; 62 g ai/ha,5
same,"Plant response rating, Morningglory",morningglory [3]; 125 g ai/ha,5
same,"Plant response rating, Morningglory",morningglory [3]; 250 g ai/ha,30
same,"Plant response rating (0 to 100), Morningglory","morningglory [3]; Preemergence, 250 g ai/ha",100
same,Morningglory plant response rating,morningglory [3]; [11],100
same,Corn plant response rating,corn; [9],0
same,Corn plant response rating,corn; [10],5
same,"Plant response rating (0 to 100), Corn","corn; Postemergence, 31 g ai/ha",0
same,"Plant response rating, Corn","corn; Postemergence, 62 g ai/ha",0
same,"Plant response rating, Corn","corn; Postemergence, 125 g ai/ha",0
same,"Plant response rating, Corn","corn; Postemergence, 250 g ai/ha",0
same,"Plant response rating (0 to 100), Corn","corn; Preemergence, 250 g ai/ha",85
same,Corn plant response rating,corn; [11],45
same,Morningglory plant response rating,morningglory [4]; [5],60
same,Morningglory plant response rating,morningglory [4]; [6],100
same,Morningglory plant response rating,morningglory [4]; [7],80
same,"Plant response rating, Morningglory",morningglory [4]; [8],90
same,Goosegrass plant response rating,Goosegrass; [9],80
same,Goosegrass plant response rating,Goosegrass; [10],100
same,"Plant response rating (0 to 100), Goosegrass","Goosegrass; Postemergence, 31 g ai/ha",0
same,"Plant response rating, Goosegrass","Goosegrass; Postemergence, 62 g ai/ha",0
same,"Plant response rating, Goosegrass","Goosegrass; Postemergence, 125 g ai/ha",0
same,"Plant response rating, Goosegrass","Goosegrass; Postemergence, 250 g ai/ha",0
same,"Plant response rating (0 to 100), Goosegrass","Goosegrass; Preemergence, 250 g ai/ha",100
same,Goosegrass plant response rating,Goosegrass; [11],100
same,"Bromegrass, Downy plant response rating",downy brome; [9],0
same,"Bromegrass, Downy plant response rating",downy brome; [10],40
same,"Plant response rating (0 to 100), Bromegrass, Downy","downy brome; Postemergence, 31 g ai/ha",0
same,"Plant response rating, Bromegrass, Downy","downy brome; Postemergence, 62 g ai/ha",0
same,"Plant response rating, Bromegrass, Downy","downy brome; Postemergence, 125 g ai/ha",0
same,"Plant response rating, Bromegrass, Downy","downy brome; Postemergence, 250 g ai/ha",0
same,"Plant response rating (0 to 100), Bromegrass, Downy","downy brome; Preemergence, 250 g ai/ha",45
same,"Bromegrass, Downy plant response rating",downy brome; [11],45
same,Johnsongrass plant response rating,johnsongrass; [9],30
same,Johnsongrass plant response rating,johnsongrass; [10],95
same,"Plant response rating (0 to 100), Johnsongrass","johnsongrass; Postemergence, 31 g ai/ha",0
same,"Plant response rating, Johnsongrass","johnsongrass; Postemergence, 62 g ai/ha",0
same,"Plant response rating, Johnsongrass","johnsongrass; Postemergence, 125 g ai/ha",0
same,"Plant response rating, Johnsongrass","johnsongrass; Postemergence, 250 g ai/ha",0
same,"Plant response rating (0 to 100), Johnsongrass","johnsongrass; Preemergence, 250 g ai/ha",100
same,Johnsongrass plant response rating,johnsongrass; [11],100
same,"Cupgrass, Woolly plant response rating",woolly cupgrass; [9],65
same,"Cupgrass, Woolly plant response rating",woolly cupgrass; [10],90
same,"Plant response rating (0 to 100), Cupgrass, Woolly","woolly cupgrass; Postemergence, 31 g ai/ha",0
same,"Plant response rating, Cupgrass, Woolly","woolly cupgrass; Postemergence, 62 g ai/ha",30
same,"Plant response rating, Cupgrass, Woolly","woolly cupgrass; Postemergence, 125 g ai/ha",50
same,"Plant response rating, Cupgrass, Woolly","woolly cupgrass; Postemergence, 250 g ai/ha",50
same,"Plant response rating (0 to 100), Cupgrass, Woolly","woolly cupgrass; Preemergence, 250 g ai/ha",100
same,"Cupgrass, Woolly plant response rating",woolly cupgrass; [11],100
